The target in series [1] is Human or Rat Histamine H3 Receptor. The series can be described thus: Binding assay for human or rat Histamine H3 receptor ([3H] R-α-methylhistamine displacement). The settings on record: radioligand [3H] R-α-methylhistamine 3.0 nM; receptor source rat brain frontal cortex or recombinant human cDNA in CHO cells (table does not say which). The method, then: The reaction was terminated by rapid vacuum filtration onto the glass fiber filters. Radioactivity trapped onto the filters was determined and compared to the control values in order to ascertain any interactions of the test compound(s) with either cloned human or rat receptor binding site.

A short description of series [2]: Rodent Pharmacokinetic Study.
Description: Male Wistar rats (230-280 grams) obtained from NIN (National Institute of Nutrition, Hyderabad, India) were used as an experimental animal. Three animals were housed in each cage. Animals were kept fasted over night and maintained on a 12 hours light/dark cycle. Three rats were dosed New chemical entity (NCE) orally (3 or 10 mg/kg) and intravenously (1 or 5 mg/kg) on day 0 and day 2.
At each time point blood was collected by jugular vein. Blood was stored at 2-8° C. until analysis. The concentrations of the NCE compound in blood were determined using LC-MS/MS method. Schedule time points: Pre dose 0.08, 0.25, 0.5, 1, 2, 4, 6, 8 and 24 hours after dosing (n=3). The NCE compounds were quantified in blood by partially validated LC-MS/MS method using acetonitrile precipitation technique. […] Study samples were analyzed using calibration samples in the batch and quality control samples spread across the batch.
Pharmacokinetic parameters were calculated by non-compartmental model using software WinNonlin version 5.0.1.
For a further series, the system named is rats. The series can be described thus: Inhibition of Food Intake. In kind it is in vivo. The settings on record: rats fasted 18 hours, oral treatment 60 minutes before feed, active dose. The method, then:
The anti-obesity properties of compounds of this invention were estimated using this model.
The experiment consisted of 6 days. The rats were adapted to the 18 hours fasting and 6 hours feeding pattern. The animals were housed in a group of three in the cages provided with the fasting grills and was fasted for 18 hours. After 18 hours fasting the rats were separated and placed individually in the cage. Weighed amount of feed was provided to rats for 6 hours and the feed intake at 1 hour, 2 hours, 4 hours and 6 hours was measured.
Again the rats were regrouped and fasted for 18 hours. The above procedure was followed for 5 days. The average cumulative food intake by the rats on the last 3 days was calculated. Animals were randomized on the basis of their previous three days food intake. On the day of experiment the rats were orally treated test compounds or vehicle. After 60 minutes, the feed was provided to the rats and the food intake at 1 hour, 2 hours, 4 hours and 6 hours was measured. The food intake by the rats treated with test compound was compared with the vehicle treated group by using Unpaired Student's t test.

Setting [3] is: male, Wistar, rat, whole blood, po, 10 mg/kg.
Setting [4] is: male, Wistar, rat, whole blood, iv, 1 mg/kg.
The mark [5] stands for this setting: male, Wistar, rat, whole blood, po, 3 mg/kg.
Setting [6] is: Wistar/Male rat, Intravenous, 1 mg/kg, vehicle water, blood.
Setting [7] is: Wistar/Male rat, Per Oral, 3 mg/kg, vehicle water, blood.

Counter-ions that a name gives are not always drawn.

Usually Ki stands for a measure of affinity in units of concentration, obtained from inhibition or displacement. Take `O=C(CNc1ccc(OC2CCN(C3CCC3)CC2)cc1)N1CCOCC1` [Example 2, 2-[4-(1-Cyclobutylpiperidin-4-yloxy)phenylamino]-1-(morpholin-4-yl)ethanone hydrochloride]: the Ki in series [1] stood at 6.4 nM.
For the molecule `O=C(CN1CCCCC1)Nc1ccc(OC2CCN(C3CCC3)CC2)cc1C(F)(F)F` [Example 7, N-[4-(1-Cyclobutylpiperidin-4-yloxy)-2-trifluoromethylphenyl]-2-(piperidin-1-yl) acetamide], the Ki in series [1] came out at 14.8 nM.
`Cc1cc(OC2CCN(C(C)C)CC2)ccc1NC(=O)CN1CCCC1` [Example 10, N-[4-(1-Isopropyl-piperidin-4-yloxy)-2-methylphenyl]-2-(pyrrolidin-1-yl) acetamide]: the Ki in series [1] was 8.4 nM.
Usually AUC(0-t) stands for exposure summed from dosing to a finite time, without extrapolation to infinity. The low end stands for low exposure, the high end for high exposure. As usually defined, the Cmax is the highest concentration seen after dosing. The term Tmax denotes the time from dosing to the highest level. A word on the bioavailability: it is the share of a dose that reaches the circulation, judged against a reference dose that is usually intravenous. A higher bioavailability goes with much systemic uptake. The molecule `Cc1cc(OC2CCN(C3CCC3)CC2)ccc1NC(=O)CN1CCCC1` [Example 11, N-[4-(1-Cyclobutylpiperidin-4-yloxy)-2-methylphenyl]-2-(pyrrolidin-1-yl) acetamide] yielded an AUC(0-t) in series [2] (male, Wistar, rat, whole blood, iv, 5 mg/kg) of 3340 ± 656 ng·h/mL. Besides, in series [2] (setting [3]), the AUC(0-t) was 1350 ± 569 ng·h/mL, the Cmax was found to be 122 ± 55 ng/mL, the time of peak concentration (Tmax) is 4 ± 1.76 h and the bioavailability was found to be 20 ± 9%. Besides, the Ki in series [1] is 1.9 nM.
For `Cc1cc(OC2CCN(C3CCCC3)CC2)ccc1NC(=O)CN1CCCCC1` [Example 12, N-[4-(1-Cyclopentylpiperidin-4-yloxy)-2-methylphenyl]-2-(piperidin-1-yl) acetamide], the Ki in series [1] was found to be 7.5 nM.
Turning to `Cc1cc(OC2CCN(C3CCC3)CC2)ccc1NC(=O)CN1CCCCC1` [Example 13, N-[4-(1-Cyclobutylpiperidin-4-yloxy)-2-methylphenyl]-2-(piperidin-1-yl) acetamide], the “Inhibition of food intake” value in the series on rats was 30 mg/kg, p.o. Further, in series [1], the Ki is 3.3 nM.
Turning to `CN(C(=O)CN1CCOCC1)c1ccc(OC2CCN(C3CCC3)CC2)cc1` [Example 14, N-[4-(1-Cyclobutylpiperidin-4-yloxy)phenyl]-N-methyl-2-(morpholin-4-yl) acetamide], the Ki in series [1] is 4.9 nM.
Consider `Cc1cc(OC2CCN(C3CCCC3)CC2)ccc1NC(=O)CN1CCC[C@H]1C` [Example 15, N-[4-(1-Cyclopentylpiperidin-4-yloxy)-2-methylphenyl]-2-(R-2-methylpyrrolidin-1-yl) acetamide], for which the Ki in series [1] was determined as 4 nM.
In the case of `Cc1cc(OC2CCN(C3CCC3)CC2)ccc1NC(=O)CN1CCC[C@H]1C` [Example 16, N-[4-(1-Cyclobutylpiperidin-4-yloxy)-2-methylphenyl]-2-(R-2-methylpyrrolidin-1-yl) acetamide], the “Inhibition of food intake” value with rats was “≧30 mg/kg, p.o”. For the same molecule, in series [1], the Ki amounted to 2.4 nM.
As a reminder, the half-life is how long it takes for the measured level to halve. Read a low half-life as rapid decline. Take `O=C(CN1CCC(O)CC1)Nc1ccc(OC2CCN(C3CCC3)CC2)cc1` [Example 19, N-[4-(1-Cyclobutylpiperidin-4-yloxy)phenyl]-2-(4-hydroxypiperidin-1-yl) acetamide]: in series [2] (setting [4]), the AUC(0-t) was 347 ± 44 ng·h/mL and the half-life is 17 ± 4.5 h. In addition, in series [2] (setting [5]), the AUC(0-t) worked out at 838 ± 96 ng·h/mL, the Cmax is 67 ± 11 ng/mL, the Tmax stood at 2.67 ± 1.15 h and the bioavailability is 81 ± 12%. In series [2] (setting [5]), this molecule gave a half-life of 12.8 ± 2.48 h. Besides, the Ki in series [1] worked out at 6.4 nM.
Take `O=C(CN1CCCC1)Nc1ccc(OC2CCN(C3CCC3)CC2)cc1` [Example 21, N-[4-(1-Cyclobutylpiperidin-4-yloxy)-phenyl]-2-(pyrrolidin-1-yl) acetamide]: in the series on rats, the “Inhibition of food intake” value is given as “≧30 mg/kg, p.o”. Moreover, the Ki in series [1] turned out to be 1.1 nM.
In series [2] (setting [6]), `O=C(CN1CCOCC1)Nc1ccc(OC2CCN(C3CC3)CC2)cc1` [Example 23, N-[4-(1-Cyclopropylpiperidin-4-yloxy)phenyl]-2-(morpholin-4-yl) acetamide] came in with an AUCt of 338 ± 29 ng·h/mL and a T1/2 of 1.13 ± 0.02 h. Moreover, in series [2] (setting [7]), the AUCt is 556 ± 111 ng·h/mL, the Cmax worked out at 389 ± 29 ng/mL, the T1/2 worked out at 1.23 ± 0.53 h and the Tmax was 0.50 ± 0.00 h. In series [2] (Wistar/Male rat, per oral 3 mg/kg vs intravenous 1 mg/kg), this molecule came in with a bioavailability of 55 ± 10%.
Regarding `CC(C)N1CCCN(CC(=O)Nc2ccc(OC3CCN(C4CCC4)CC3)cc2)CC1` [Example 24, N-[4-(1-Cyclobutylpiperidin-4-yloxy)phenyl]-2-(4-isopropyl[1,4]diazepan-1-yl) acetamide], in series [1], the Ki was 1 nM.
With `O=C(CN1CCOC(CO)C1)Nc1ccc(OC2CCN(C3CCC3)CC2)cc1` (centres unmarked) [Example 25, N-[4-(1-Cyclobutylpiperidin-4-yloxy)phenyl]-2-(2-hydroxymethylmorpholin-4-yl) acetamide], the Ki in series [1] was determined as 4.05 nM.
`O=C(CCN1CCOCC1)Nc1ccc(OC2CCN(C3CCC3)CC2)cc1` [Example 26, N-[4-(1-Cyclobutylpiperidin-4-yloxy)phenyl]-3-(morpholin-4-yl) propionamide]: the Ki in series [1] came out at 6.7 nM.
Still for that read-out and setting: the figure for `O=C(CN1CCCCC1)Nc1ccc(OC2CCN(C3CCCC3)CC2)cc1` [Example 27, N-[4-(1-Cyclopentylpiperidin-4-yloxy)phenyl]-2-(piperidin-1-yl) acetamide dihydrochloride] is 4.1 nM; for `O=C(CN1CCCC1)Nc1ccc(OC2CCN(C3CCCC3)CC2)cc1` [Example 28, N-[4-(1-Cyclopentylpiperidin-4-yloxy)phenyl]-2-(pyrrolidin-1-yl) acetamide dihydrochloride] it is 3.8 nM.
On the same count and under the same terms, the figure for `O=C(CN1CCCCC1)Nc1ccc(OC2CCN(C3CCC3)CC2)cc1` [Example 29, N-[4-(1-Cyclobutylpiperidin-4-yloxy)phenyl]-2-(piperidin-1-yl) acetamide] is 1.6 nM; for `CC(=O)N(CCN1CCOCC1)c1ccc(OC2CCN(C3CC3)CC2)cc1` [Example 38, N-[4-(1-Cyclopropylpiperidin-4-yloxy)phenyl]-N-[2-(morpholin-4-yl)ethyl] acetamide L(+) tartarate] it is 6.6 nM.
Turning to `CC(=O)N1CCN(CC(=O)Nc2ccc(OC3CCN(C4CCC4)CC3)cc2)CC1` [Example 39, N-[4-(1-Cyclobutylpiperidin-4-yloxy)phenyl]-2-(1-acetylpiperazin-4-yl) acetamide], the Ki in series [1] worked out at 5.39 nM.
